# Target: T1, APOL1 G1 (Homo sapiens, UniProt O14791, I384M/S342G)
# T1 sequence (O14791 28-398 S342G/I384M): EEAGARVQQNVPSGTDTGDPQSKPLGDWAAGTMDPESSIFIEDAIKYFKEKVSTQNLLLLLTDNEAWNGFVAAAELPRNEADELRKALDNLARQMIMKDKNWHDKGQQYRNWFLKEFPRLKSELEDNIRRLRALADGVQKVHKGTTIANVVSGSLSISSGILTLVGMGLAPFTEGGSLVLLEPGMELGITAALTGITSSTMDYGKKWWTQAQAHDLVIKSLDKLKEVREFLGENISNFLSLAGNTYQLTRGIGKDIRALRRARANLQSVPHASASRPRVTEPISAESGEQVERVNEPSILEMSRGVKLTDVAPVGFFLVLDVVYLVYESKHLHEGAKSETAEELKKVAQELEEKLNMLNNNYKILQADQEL
# Assay: MultiTox-Fluor Multiplex Cytotoxicity Assay, tet-inducible APOL1 G1 T-REx-HEK293 cells
# Format: cell-based
# Parameters: expressed in transfected cells; host or cells: T-REx HEK293, clone G1 DC3.25 (pAAVS1-Puro-APOL1 G1)
# Conditions: for IC90: HEK293, Multi-Tox Assay, APOL1 variant (G0/G1/G2) of the HEK293 cells not given, read-out: Multi-Tox Assay IC90; for Multi-Tox Assay Max Activity (%): APOL1 variant not given
# Procedure, shortened: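 Over 24 h at 37 °C, compounds (10-point 3-fold series from 10 µM, duplicate) were co-incubated with 50 ng/mL tetracycline inducing APOL1 G1 in T-REx-HEK293 cells. Viability/cytotoxicity measured by MultiTox-Fluor as dead-to-live fluorescence ratio, expressed as percent of control between uninduced and induced wells and fitted.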
SMILES,IC90 [nM],Multi-Tox Assay Max Activity (%)
C[C@H]1C[C@@]2(C[C@@H](c3cn(Cc4cccc(CO)c4)nn3)N1)OC[C@@H](O)c1cc(Cl)sc12 [Compound 271],50 to 500,97.0
Cc1nnc(Cn2cc([C@@H]3C[C@]4(C[C@H](C)N3)OC[C@@H](O)c3cc(Cl)sc34)nn2)[nH]1 [Compound 272],> 500,95.0
C[C@H]1C[C@@]2(C[C@@H](c3cn(CCC4CCCOC4)nn3)N1)OC[C@@H](O)c1cc(Cl)sc12 (stereo partly shown) [Compound 273],50 to 500,101.0
Cc1ccnn1CCn1cc([C@@H]2C[C@]3(C[C@H](C)N2)OC[C@@H](O)c2cc(Cl)sc23)nn1 [Compound 274],50 to 500,97.0
C[C@H]1C[C@@]2(C[C@@H](c3cn(Cc4ccc(O)nc4)nn3)N1)OC[C@@H](O)c1cc(Cl)sc12 [Compound 275],> 500,94.0
C[C@H]1C[C@@]2(C[C@@H](c3cn(Cc4cnccn4)nn3)N1)OC[C@@H](O)c1cc(Cl)sc12 [Compound 276],50 to 500,100.0
Cc1ncc(Cn2cc([C@@H]3C[C@]4(C[C@H](C)N3)OC[C@@H](O)c3cc(Cl)sc34)nn2)cn1 [Compound 277],50 to 500,100.0
COc1cccc(Cn2cc([C@@H]3C[C@]4(C[C@H](C)N3)OC[C@@H](O)c3cc(Cl)sc34)nn2)c1 [Compound 278],50 to 500,100.0
C[C@H]1C[C@@]2(C[C@@H](c3cn(Cc4cccc(O)c4)nn3)N1)OC[C@@H](O)c1cc(Cl)sc12 [Compound 279],50 to 500,97.0
C[C@H]1C[C@@]2(C[C@@H](c3cn(Cc4cccnn4)nn3)N1)OC[C@@H](O)c1cc(Cl)sc12 [Compound 280],50 to 500,–
C[C@H]1C[C@@]2(C[C@@H](c3cn(CC(O)c4ccccc4)nn3)N1)OC[C@@H](O)c1cc(Cl)sc12 (stereo partly shown) [Compound 281],50 to 500,–
COCCn1cc([C@@H]2C[C@]3(C[C@H](C)N2)OC[C@@H](O)c2cc(Cl)sc23)nn1 [Compound 282],50 to 500,–
C[C@H]1C[C@@]2(C[C@@H](c3cn(CC(F)F)nn3)N1)OC[C@@H](O)c1cc(Cl)sc12 [Compound 283],50 to 500,101.0
CCC(O)Cn1cc([C@@H]2C[C@]3(C[C@H](C)N2)OC[C@@H](O)c2cc(Cl)sc23)nn1 (stereo partly shown) [Compound 284],50 to 500,101.0
Cc1c(Cn2cc([C@@H]3C[C@]4(C[C@H](C)N3)OC[C@@H](O)c3cc(Cl)sc34)nn2)cnn1C [Compound 285],50 to 500,98.0
C[C@H]1C[C@@]2(C[C@@H](c3cn(CCC#N)nn3)N1)OC[C@@H](O)c1cc(Cl)sc12 [Compound 286],50 to 500,98.0
CC(C)N1CC(Cn2cc([C@@H]3C[C@]4(C[C@H](C)N3)OC[C@@H](O)c3cc(Cl)sc34)nn2)CC1=O (stereo partly shown) [Compound 287],50 to 500,96.0
C[C@H]1C[C@@]2(C[C@@H](c3cn(CCC(N)=O)nn3)N1)OC[C@@H](O)c1cc(Cl)sc12 [Compound 288],50 to 500,97.0
C[C@H]1C[C@@]2(C[C@@H](c3cn(CC4(F)CCOCC4)nn3)N1)OC[C@@H](O)c1cc(Cl)sc12 [Compound 289],> 500,83.0
CCn1cc(Cn2cc([C@@H]3C[C@]4(C[C@H](C)N3)OC[C@@H](O)c3cc(Cl)sc34)nn2)cn1 [Compound 290],50 to 500,–
C[C@H]1C[C@@]2(C[C@@H](c3cn(Cc4cocn4)nn3)N1)OC[C@@H](O)c1cc(Cl)sc12 [Compound 291],50 to 500,100.0
C[C@H]1C[C@@]2(C[C@@H](c3cn(Cc4ccccn4)nn3)N1)OC[C@@H](O)c1cc(Cl)sc12 [Compound 292],50 to 500,–
COc1cc(F)cc(Cn2cc([C@@H]3C[C@]4(C[C@H](C)N3)OC[C@@H](O)c3cc(Cl)sc34)nn2)c1 [Compound 293],< 50,100.0
Cc1ccc(Cn2cc([C@@H]3C[C@]4(C[C@H](C)N3)OC[C@@H](O)c3cc(Cl)sc34)nn2)nc1 [Compound 294],50 to 500,100.0
COc1ccc(Cn2cc([C@@H]3C[C@]4(C[C@H](C)N3)OC[C@@H](O)c3cc(Cl)sc34)nn2)cc1 [Compound 295],50 to 500,–
Cc1cc(Cn2cc([C@@H]3C[C@]4(C[C@H](C)N3)OC[C@@H](O)c3cc(Cl)sc34)nn2)ccn1 [Compound 296],50 to 500,–

SMILES,IC90 [nM],Multi-Tox Assay Max Activity (%)
Cc1nc(Cn2cc([C@@H]3C[C@]4(C[C@H](C)N3)OC[C@@H](O)c3cc(Cl)sc34)nn2)oc1C [Compound 297],50 to 500,–
C[C@H]1C[C@@]2(C[C@@H](c3cn(Cc4ncc(F)cc4F)nn3)N1)OC[C@@H](O)c1cc(Cl)sc12 [Compound 298],> 500,95.0
C[C@H]1C[C@@]2(C[C@@H](c3cn(CCOc4ccccc4F)nn3)N1)OC[C@@H](O)c1cc(Cl)sc12 [Compound 301],< 50,–
C[C@H]1C[C@@]2(C[C@@H](c3cn(Cc4ccc(O)cc4)nn3)N1)OCC(F)(F)c1cc(Cl)sc12 [Compound 302],50 to 500,94.0
Cc1cccc(OCC(O)Cn2cc([C@@H]3C[C@]4(C[C@H](C)N3)OCC(F)(F)c3cc(Cl)sc34)nn2)c1 (stereo partly shown) [Compound 303],50 to 500,–
Cc1ccccc1C(O)Cn1cc([C@@H]2C[C@]3(C[C@H](C)N2)OCC(F)(F)c2cc(Cl)sc23)nn1 (stereo partly shown) [Compound 304],50 to 500,–
C[C@H]1C[C@@]2(C[C@@H](c3cn(CCc4ccncn4)nn3)N1)OCC(F)(F)c1cc(Cl)sc12 [Compound 305],50 to 500,100.0
CC(CO)CCn1cc([C@@H]2C[C@]3(C[C@H](C)N2)OCC(F)(F)c2cc(Cl)sc23)nn1 (stereo partly shown) [Compound 306],> 500,–
C[C@H]1C[C@@]2(C[C@@H](c3cn(CC4CCS(=O)(=O)C4)nn3)N1)OCC(F)(F)c1cc(Cl)sc12 (stereo partly shown) [Compound 307],50 to 500,–
C[C@H]1C[C@@]2(C[C@@H](c3cn(Cc4ccc(OC5CCOCC5)cc4)nn3)N1)OCC(F)(F)c1cc(Cl)sc12 [Compound 308],> 500,95.0
C[C@H]1C[C@@]2(C[C@@H](c3cn(CC4CCOCC4)nn3)N1)OCC(F)(F)c1cc(Cl)sc12 [Compound 309],50 to 500,97.0
C[C@H]1C[C@@]2(C[C@@H](c3cn(Cc4cccc5c4OCCO5)nn3)N1)OCC(F)(F)c1cc(Cl)sc12 [Compound 310],> 500,94.0
C[C@H]1C[C@@]2(C[C@@H](c3cn(CC4CCOC4)nn3)N1)OCC(F)(F)c1cc(Cl)sc12 (stereo partly shown) [Compound 311],50 to 500,–
C[C@H]1C[C@@]2(C[C@@H](c3cn(Cc4cccc(CO)c4)nn3)N1)OCC(F)(F)c1cc(Cl)sc12 [Compound 313],50 to 500,98.0
C[C@H]1C[C@@]2(C[C@@H](c3cn(CCC4CCCOC4)nn3)N1)OCC(F)(F)c1cc(Cl)sc12 (stereo partly shown) [Compound 314],< 50,–
Cc1ccnn1CCn1cc([C@@H]2C[C@]3(C[C@H](C)N2)OCC(F)(F)c2cc(Cl)sc23)nn1 [Compound 315],50 to 500,98.0
C[C@H]1C[C@@]2(C[C@@H](c3cn(Cc4ccc(O)nc4)nn3)N1)OCC(F)(F)c1cc(Cl)sc12 [Compound 316],> 500,95.0
C[C@H]1C[C@@]2(C[C@@H](c3cn(Cc4cnccn4)nn3)N1)OCC(F)(F)c1cc(Cl)sc12 [Compound 317],50 to 500,98.0
Cc1ncc(Cn2cc([C@@H]3C[C@]4(C[C@H](C)N3)OCC(F)(F)c3cc(Cl)sc34)nn2)cn1 [Compound 318],< 50,–
COc1cccc(Cn2cc([C@@H]3C[C@]4(C[C@H](C)N3)OCC(F)(F)c3cc(Cl)sc34)nn2)c1 [Compound 319],50 to 500,95.0
C[C@H]1C[C@@]2(C[C@@H](c3cn(Cc4cccc(O)c4)nn3)N1)OCC(F)(F)c1cc(Cl)sc12 [Compound 320],> 500,95.0
C[C@H]1C[C@@]2(C[C@@H](c3cn(Cc4cccnn4)nn3)N1)OCC(F)(F)c1cc(Cl)sc12 [Compound 321],50 to 500,–
C[C@H]1C[C@@]2(C[C@@H](c3cn(CC(O)c4ccccc4)nn3)N1)OCC(F)(F)c1cc(Cl)sc12 (stereo partly shown) [Compound 322],50 to 500,97.0
COCCn1cc([C@@H]2C[C@]3(C[C@H](C)N2)OCC(F)(F)c2cc(Cl)sc23)nn1 [Compound 323],50 to 500,100.0
C[C@H]1C[C@@]2(C[C@@H](c3cn(CC(F)F)nn3)N1)OCC(F)(F)c1cc(Cl)sc12 [Compound 324],> 500,96.0
